# US20230257374A1, “NOVEL KRAS G12C PROTEIN INHIBITOR, PREPARATION METHOD THEREFOR, AND USE THEREOF” (INNOVENT BIOLOGICS (SUZHOU) CO., LTD., priority 2019, published 2023)
# Tests used:
# in vitro [1] = details: microsomes, pH 7.4
# in vitro [2] = details: human, Caco-2, pH 7.4
# Description: Drug penetration test: the Transwell culture plate was retrieved from the incubator. […] All samples were prepared in double parallel. The integrity of the cell monolayer membrane after 2 hours of incubation was assessed using leakage of fluorescein; fluorescein stock solution was diluted with HBSS (25 mM HEPES, pH 7.4) to a final concentration of 100 μM. 100 μL of fluorescein solution was added to each well of the upper Transwell plate and 300 μL of HBSS (25 mM HEPES, pH 7.4) was added to each well of the lower receiving plate; after incubation at 37° C. for 30 min, 80 μL of the solution was pipetted from the upper and lower layers of each well to a new 96-well plate.
# The apparent permeability coefficients (Papp, unit: cm/s) of the compounds in Caco-2 cells were calculated from the specific concentrations at the acceptor and donor ends, and the specific calculation formula is as follows: […]
# where VA represents the volume of the acceptor end solution (0.3 mL for Ap→Bl, 0.1 mL for Bl→Ap); Area represents the area of the Transwell-96 well plate (0.143 cm^2); time represents the incubation time (unit: s); [drug]acceptor represents the drug concentration (ratio of peak area to internal standard area) at the acceptor end; [drug]initial, donor represents the drug concentration at the donor end (ratio of peak area to internal standard area).
# The efflux ratio was calculated as follows: […]
# where Papp (B-A) represents the apparent permeability coefficient from base end to top end; Papp (A-B) represents the apparent permeability coefficient from top end to base end.
"half-life at 1 μM (in vitro [1]; ICR (CD-1), mouse) [min]","microsomal CLint at 1 μM (in vitro [1]; ICR (CD-1), mouse) [µL/min/mg]",half-life at 1 μM (in vitro [1]; human) [min],microsomal CLint at 1 μM (in vitro [1]; human) [µL/min/mg],"Papp A→B at 2 h, 10 μM (in vitro [2]) [×10⁻⁶ cm/s]","Papp B→A at 2 h, 10 μM (in vitro [2]) [×10⁻⁶ cm/s]","efflux ratio at 2 h, 10 μM (in vitro [2])",Compound
20.9,66.5,29.3,47.3,0.63,5.5,8.7,"[2H]C([2H])([2H])c1cccc2cccc(N3CCc4c(nc(OC[C@@H]5CCCN5C)nc4N4CCN(C(=O)C=C)[C@@H](CC#N)C4)C3)c12 [Compound 1, 2-((S)-1-acryloyl-4-(7-(8-(methyl-d3)naphthalen-1-yl)-2-(((S)-1-methylpyrrolidin-2-yl)methoxy)-5,6,7,8-tetrahydropyrido[3,4-d]pyrimidin-4-yl)piperazin-2-yl)acetonitrile]"
22.8,60.9,27.2,51,–,–,–,"[2H]C([2H])([2H])N1CCC[C@H]1COc1nc2c(c(N3CCN(C(=O)C=C)[C@@H](CC#N)C3)n1)CCN(c1cccc3cccc(C)c13)C2 [Compound 42, 2-((S)-1-acryloyl-4-(7-(8-methylnaphthalen-1-yl)-2-(((S)-1-(methyl-d3)pyrrolidin-2-yl)methoxy)-5,6,7,8-tetrahydropyrido[3,4-d]pyrimidin-4-yl)piperazin-2-yl)acetonitrile]"
